{
  "source": "patent US20200109126A1",
  "about": "(priority 2017, published 2020)",
  "key": {"[1]": {"molecular_target": "T1, μOR (Homo sapiens, UniProt P35372)", "T1 sequence (P35372 whole entry)": "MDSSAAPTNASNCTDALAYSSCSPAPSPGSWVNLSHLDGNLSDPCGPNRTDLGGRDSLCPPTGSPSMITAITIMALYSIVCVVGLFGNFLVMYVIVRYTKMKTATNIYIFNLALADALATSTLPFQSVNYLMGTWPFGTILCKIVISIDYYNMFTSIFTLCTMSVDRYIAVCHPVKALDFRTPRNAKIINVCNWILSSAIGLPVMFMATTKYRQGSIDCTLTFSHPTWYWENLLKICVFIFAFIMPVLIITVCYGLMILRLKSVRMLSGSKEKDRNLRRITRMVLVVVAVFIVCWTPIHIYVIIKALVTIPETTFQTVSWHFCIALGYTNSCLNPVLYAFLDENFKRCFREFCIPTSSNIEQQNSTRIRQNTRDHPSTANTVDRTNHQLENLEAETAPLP", "assay": "β-arrestin recruitment at μOR without GRK2", "type": "cell-based"}, "[2]": {"tested_on": "C57BL/6J mice", "assay": "Tail-flick assay", "conditions": "mouse, in vivo"}, "[3]": {"molecular_target": "T1, μOR", "assay": "β-arrestin2 recruitment, PathHunter assay", "type": "cell-based"}, "[4]": {"molecular_target": "T1, μOR", "assay": "biochemical", "type": "binding", "design": "expressed in transfected cells; host or cells: HEK293 membranes (Ki); Sf9 insect cell membranes (single-point screen); PDSP for analogs", "description": "For a primary screen of selected molecules, binding to OR was assessed by measuring competition against the radioligand ^3H-diprenorphine (^3H-DPN). […] The reaction contained 40 fmol of μOR and was incubated in a buffer of 20 mM HEPES pH 7.5, 100 mM sodium chloride, and 0.1% bovine serum albumin for 1 hour at 25° C. To separate free from bound radioligand, reactions were rapidly filtered over Whatman GF/B filters with the aid of a Brandel harvester and ^3H-DPN counts were measured by liquid scintillation."}, "[5]": {"assay": "Metabolism by mouse liver microsomes", "type": "in vitro ADME", "conditions": "over one hour", "procedure": "Metabolism experiments were performed as described previously. In brief, pooled microsomes from male mouse liver (CD-1) were purchased (Sigma Aldrich) and stored at −75° C. until required. NADPH was purchased (Carl Roth) and stored at −8° C. The incubation reactions were carried out in polyethylene caps (Eppendorf, 1.5 mL) at 37° C. […] The final incubation volume was 0.5 mL. Microsomal reactions were initiated by addition of 50 μL of enzyme cofactor solution NADPH (final concentration of 1 mM). At 0, 15, 30 and 60 min the enzymatic reactions were terminated by addition of 500 μL of ice-cold acetonitrile (containing 8 μM internal standard), and precipitated protein was removed by centrifugation (15,000 rcf for 3 min). The supernatant was analyzed by HPLC/MS (binary solvent system, eluent acetonitrile in 0.1% aqueous formic acid, 10-40% acetonitrile in 8 min, 40-95% acetonitrile in 1 min, 95% acetonitrile for 1 min, flow rate of 0.3 mL/min). The experiments were repeated in three independent experiments. […] Substrate remaining and metabolite formation was calculated as a mean value+SEM of three independent experiments by comparing AUC of metabolites and substrate after predetermined incubation time to AUC of substrate at time 0, estimating a similar ionization rate, corrected by a factor calculated from the AUC of internal standard at each time point."}},
  "note": "Entries after “also recorded” stand apart in the source; their conditions may differ.",
  "data": [
    {"molecule": "C[C@@H](Cc1ccsc1)NC(=O)NC[C@H](Cc1ccc(O)cc1)N(C)C", "note": "[PZM21, 1-[(S)-2-(Dimethylamino)-3-(4-hydroxyphenyl)propyl]-3-((S)-1-(thiophen-3-yl)propan-2-yl)urea]", "values": [
      {"measurement": "Arrestin Emax % DAMGO", "setting": "[1]", "value": 15, "unit": "% DAMGO"},
      {"measurement": "β-arrestin2 recruitment in the absence of GRK2 (in words)", "setting": "[1]", "value": "no β-arrestin2 recruitment"},
      {"measurement": "analgesic effect in tail-flick assay", "setting": "[2]", "value": "no activity; also recorded: no analgesic effect"},
      {"measurement": "β-arrestin2 recruitment (in words)", "setting": "[3]", "value": "undetectable; also recorded: minimal recruitment of β-arrestin2; also recorded: no detectable"},
      {"measurement": "optimization from initial docking hit compound 7", "setting": "[4]", "value": 1000, "unit": "fold"},
      {"measurement": "improvement versus 12", "setting": "[4]; Ki and EC50 of (S,S)-21 against compound 12", "value": 40, "unit": "fold"},
      {"measurement": "metabolism by mouse liver microsomes", "setting": "[5]", "value": 8, "unit": "%"}
    ]}
  ]
}
